Measurements: publication PMC3553014, “Albumin Stimulates the Activity of the Human UDP-Glucuronosyltransferases 1A7, 1A8, 1A10, 2A1 and 2B15, but the Effects Are Enzyme and Substrate Dependent” (PLoS ONE, 2013)
Read-outs that look alike come from different tables or passages of the source. One block for each molecule: values may come before it.

Key:
[1] = molecular target: T1, UGT1A1 (Homo sapiens, UniProt P22309); conditions: read-out: No BSA: K m or S 50 ± S.E. (95% CI)
T1 sequence (P22309 26-533): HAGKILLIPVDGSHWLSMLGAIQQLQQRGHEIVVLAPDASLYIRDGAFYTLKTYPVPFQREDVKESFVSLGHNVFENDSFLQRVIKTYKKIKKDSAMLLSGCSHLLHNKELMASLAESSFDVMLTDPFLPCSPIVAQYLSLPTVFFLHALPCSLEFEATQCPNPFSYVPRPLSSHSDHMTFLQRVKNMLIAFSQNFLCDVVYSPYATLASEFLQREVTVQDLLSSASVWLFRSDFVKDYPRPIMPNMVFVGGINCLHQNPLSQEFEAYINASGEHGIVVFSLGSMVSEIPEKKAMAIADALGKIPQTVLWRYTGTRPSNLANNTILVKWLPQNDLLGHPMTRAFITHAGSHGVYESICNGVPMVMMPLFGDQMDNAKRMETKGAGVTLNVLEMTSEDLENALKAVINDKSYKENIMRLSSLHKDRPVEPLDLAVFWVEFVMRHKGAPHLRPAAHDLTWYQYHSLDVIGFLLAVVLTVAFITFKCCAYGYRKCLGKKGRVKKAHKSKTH
Protocol: (§1) Recombinant human UGTs 1A1, 1A6, 1A7, 1A8, 1A10, 2A1, 2B4, 2B7 and 2B17 were expressed as His-tagged proteins in baculovirus-infected insect cells as described previously [14]. […] Protein concentrations were determined by the BCA method (Pierce Biotechnology, Rockford, IL, USA).
(§2) The protein concentrations and incubation times for the enzyme kinetic assays were selected based on preliminary assays in order to ensure that the product formation was within the linear range with respect to both protein concentration and time, and that the substrate consumption during the reaction was less than 10%. The initial velocity measurements were performed in either duplicates or triplicates and they are presented as the average values and S.E.
The HPLC system consisted of an Agilent 1100 series degasser, binary pump, 100-vial autosampler, thermostated column compartment, multiple wavelengths UV detector, and fluorescence detector (Agilent Technologies, Palo Alto, CA, USA). […] The resulting chromatograms were analyzed with Agilent ChemStation software (rev. B.01.01) on Windows XP Professional. […] The resulting chromatograms were analyzed with Empower 2 software (Build 2154, Waters, Milford, MA, USA) on Windows XP Professional operating system. The limits of detection and quantification were estimated based on signal-to-noise ratios of 3 and 10, respectively. […]

[2] = molecular target: T2, UGT1A7 (Homo sapiens, UniProt Q9HAW7); assay: UGT1A7-catalyzed glucuronidation, enzyme kinetics; format: in vitro ADME; conditions: for V max ± S.E.: No BSA, expression level-normalized
T2 construct: His-tag; made in house; host or cells: baculovirus-infected insect cells (Sf9)
T2 sequence (Q9HAW7 26-530): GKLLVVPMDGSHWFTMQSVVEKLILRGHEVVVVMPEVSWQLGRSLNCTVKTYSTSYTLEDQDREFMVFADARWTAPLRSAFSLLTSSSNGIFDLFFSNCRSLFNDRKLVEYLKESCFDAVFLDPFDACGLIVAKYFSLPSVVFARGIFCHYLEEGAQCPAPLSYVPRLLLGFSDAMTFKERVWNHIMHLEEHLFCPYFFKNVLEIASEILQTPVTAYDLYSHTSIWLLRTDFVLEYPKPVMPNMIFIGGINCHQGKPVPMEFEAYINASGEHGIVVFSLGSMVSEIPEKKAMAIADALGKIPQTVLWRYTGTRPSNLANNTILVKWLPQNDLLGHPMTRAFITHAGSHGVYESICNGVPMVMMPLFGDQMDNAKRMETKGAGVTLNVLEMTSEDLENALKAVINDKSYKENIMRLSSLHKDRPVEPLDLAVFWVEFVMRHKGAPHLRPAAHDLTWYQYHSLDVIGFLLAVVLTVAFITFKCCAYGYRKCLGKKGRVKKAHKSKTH
Protocol: (§3) Protein concentrations were determined by the BCA method (Pierce Biotechnology, Rockford, IL, USA).
as §2
The glucuronidation rates by recombinant enzymes are reported as “expression normalized” values. […] The “expression normalized” glucuronidation rates were calculated by dividing the measured glucuronidation rates with relative expression level of the each given recombinant UGT.
The enzyme kinetic parameters were obtained by fitting kinetic models to the experimental data using GraphPad Prism version 5.04 for Windows (GraphPad Software Inc., San Diego, CA, USA).

[3] = molecular target: T3, UGT1A10 (Homo sapiens, UniProt Q9HAW8); assay: UGT1A10-catalyzed glucuronidation, enzyme kinetics; format: in vitro ADME; conditions: No BSA; expression level-normalized; estradiols: 3-glucuronide formation
T3 construct: His-tag; made in house; host or cells: baculovirus-infected insect cells (Sf9)
T3 sequence (Q9HAW8 26-530): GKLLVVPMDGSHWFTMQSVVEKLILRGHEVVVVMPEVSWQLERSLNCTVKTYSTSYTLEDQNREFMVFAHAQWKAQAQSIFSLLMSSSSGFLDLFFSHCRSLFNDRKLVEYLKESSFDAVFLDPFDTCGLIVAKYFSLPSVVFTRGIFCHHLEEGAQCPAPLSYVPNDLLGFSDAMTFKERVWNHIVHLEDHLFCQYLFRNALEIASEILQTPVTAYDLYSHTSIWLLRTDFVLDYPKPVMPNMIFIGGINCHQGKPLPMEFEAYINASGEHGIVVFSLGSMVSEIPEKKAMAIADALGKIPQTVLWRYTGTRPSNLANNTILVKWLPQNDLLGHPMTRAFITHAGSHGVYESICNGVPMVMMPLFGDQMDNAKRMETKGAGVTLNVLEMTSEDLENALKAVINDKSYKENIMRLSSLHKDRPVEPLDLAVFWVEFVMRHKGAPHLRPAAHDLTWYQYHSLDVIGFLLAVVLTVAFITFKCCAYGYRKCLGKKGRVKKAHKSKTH
Protocol: as §1, §2
The glucuronidation rates by recombinant enzymes are reported as “expression normalized” values. The relative expression level of each recombinant UGT that was produced in our laboratory was determined using immunoblotting, as previously described [14], [19]. […] The “expression normalized” glucuronidation rates were calculated by dividing the measured glucuronidation rates with relative expression level of the each given recombinant UGT.
In assays containing BSA, the total concentrations of substrate were corrected according to the measured drug binding to BSA, under the specific conditions of each glucuronidation assay.

[4] = molecular target: T4, UGT2B7 (Homo sapiens, UniProt P16662); conditions: No BSA; expression level-normalized; estradiols: 17-glucuronide formation
T4 sequence (P16662 24-529): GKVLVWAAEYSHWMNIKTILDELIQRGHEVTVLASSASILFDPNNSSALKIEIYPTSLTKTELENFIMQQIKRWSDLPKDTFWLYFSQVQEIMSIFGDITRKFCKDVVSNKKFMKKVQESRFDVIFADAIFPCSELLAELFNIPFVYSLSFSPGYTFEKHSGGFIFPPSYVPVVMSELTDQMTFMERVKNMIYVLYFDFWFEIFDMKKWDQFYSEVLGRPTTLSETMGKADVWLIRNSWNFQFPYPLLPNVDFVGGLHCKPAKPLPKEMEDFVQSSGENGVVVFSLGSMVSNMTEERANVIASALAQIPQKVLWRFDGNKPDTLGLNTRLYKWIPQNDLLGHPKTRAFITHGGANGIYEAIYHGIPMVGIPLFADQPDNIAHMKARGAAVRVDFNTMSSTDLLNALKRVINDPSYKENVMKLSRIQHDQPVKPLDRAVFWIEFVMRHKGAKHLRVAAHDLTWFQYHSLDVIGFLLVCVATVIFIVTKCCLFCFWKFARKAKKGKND
Protocol: as §3, §2
(§4) The glucuronidation rates by recombinant enzymes are reported as “expression normalized” values. […] The dot blot assays were performed in triplicate and the average value was used for normalization. […] The “expression normalized” glucuronidation rates were calculated by dividing the measured glucuronidation rates with relative expression level of the each given recombinant UGT.
(§5) In assays containing BSA, the total concentrations of substrate were corrected according to the measured drug binding to BSA, under the specific conditions of each glucuronidation assay. The statistical significance of the difference in enzyme kinetics parameters upon BSA addition was tested with extra sum-of-squares F-test (included in the GraphPad software, [20]. The initial glucuronidation rates were fitted to the following equations:

[5] = molecular target: T5, UGT2B15 (Homo sapiens, UniProt P54855)
T5 sequence (P54855 24-530): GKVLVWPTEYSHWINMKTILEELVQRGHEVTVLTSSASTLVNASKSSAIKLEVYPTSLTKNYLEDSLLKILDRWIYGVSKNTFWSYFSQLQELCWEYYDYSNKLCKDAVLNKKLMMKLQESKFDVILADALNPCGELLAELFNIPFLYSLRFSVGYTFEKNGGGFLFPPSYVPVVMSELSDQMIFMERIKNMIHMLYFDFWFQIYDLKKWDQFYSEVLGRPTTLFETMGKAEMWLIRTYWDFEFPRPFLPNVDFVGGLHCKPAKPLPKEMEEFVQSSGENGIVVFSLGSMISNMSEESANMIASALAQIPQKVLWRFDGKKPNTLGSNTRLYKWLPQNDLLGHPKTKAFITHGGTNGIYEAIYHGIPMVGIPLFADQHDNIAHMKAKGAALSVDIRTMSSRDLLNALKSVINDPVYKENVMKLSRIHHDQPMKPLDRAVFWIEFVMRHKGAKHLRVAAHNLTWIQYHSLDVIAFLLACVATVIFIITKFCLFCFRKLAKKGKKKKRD
Protocol: as §1, §2
(§6) The glucuronidation rates by recombinant enzymes are reported as “expression normalized” values. The relative expression level of each recombinant UGT that was produced in our laboratory was determined using immunoblotting, as previously described [14], [19]. The dot blot assays were performed in triplicate and the average value was used for normalization. […] The “expression normalized” glucuronidation rates were calculated by dividing the measured glucuronidation rates with relative expression level of the each given recombinant UGT.
as §5

[6] = molecular target: T1, UGT1A1; assay: UGT1A1-catalyzed glucuronidation, enzyme kinetics; conditions: No BSA; expression level-normalized; estradiols: 3-glucuronide formation
Protocol: as §1, §2, §6, §5

[7] = molecular target: T6, UGT1A6 (Homo sapiens, UniProt P19224); assay: UGT1A6-catalyzed glucuronidation, enzyme kinetics; conditions: No BSA; expression level-normalized
T6 sequence (P19224 27-532): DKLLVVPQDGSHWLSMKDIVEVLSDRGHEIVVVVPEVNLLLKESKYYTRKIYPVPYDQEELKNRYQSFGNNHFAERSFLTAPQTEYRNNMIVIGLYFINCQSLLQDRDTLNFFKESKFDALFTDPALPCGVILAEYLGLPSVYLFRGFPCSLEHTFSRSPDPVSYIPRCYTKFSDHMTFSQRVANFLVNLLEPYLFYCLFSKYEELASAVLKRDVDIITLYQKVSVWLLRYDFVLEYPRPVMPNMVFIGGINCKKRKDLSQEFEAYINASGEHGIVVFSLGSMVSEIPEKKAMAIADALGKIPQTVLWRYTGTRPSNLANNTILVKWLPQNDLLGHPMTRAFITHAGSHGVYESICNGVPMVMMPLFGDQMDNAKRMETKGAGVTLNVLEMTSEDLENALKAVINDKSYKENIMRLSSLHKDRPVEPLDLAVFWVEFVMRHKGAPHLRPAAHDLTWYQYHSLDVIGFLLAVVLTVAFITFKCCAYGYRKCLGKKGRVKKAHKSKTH
Protocol: as §1, §2, §6, §5

[8] = molecular target: T7, BSA (Bos taurus, UniProt P02769); assay: in vitro; conditions: bovine
[9] = Nonspecific binding to the RED device; conditions: rapid equilibrium dialysis
[10] = molecular target: T8, UGT2B4 (Homo sapiens, UniProt P06133); assay: UGT2B4-catalyzed glucuronidation, enzyme kinetics
T8 sequence (P06133 24-528): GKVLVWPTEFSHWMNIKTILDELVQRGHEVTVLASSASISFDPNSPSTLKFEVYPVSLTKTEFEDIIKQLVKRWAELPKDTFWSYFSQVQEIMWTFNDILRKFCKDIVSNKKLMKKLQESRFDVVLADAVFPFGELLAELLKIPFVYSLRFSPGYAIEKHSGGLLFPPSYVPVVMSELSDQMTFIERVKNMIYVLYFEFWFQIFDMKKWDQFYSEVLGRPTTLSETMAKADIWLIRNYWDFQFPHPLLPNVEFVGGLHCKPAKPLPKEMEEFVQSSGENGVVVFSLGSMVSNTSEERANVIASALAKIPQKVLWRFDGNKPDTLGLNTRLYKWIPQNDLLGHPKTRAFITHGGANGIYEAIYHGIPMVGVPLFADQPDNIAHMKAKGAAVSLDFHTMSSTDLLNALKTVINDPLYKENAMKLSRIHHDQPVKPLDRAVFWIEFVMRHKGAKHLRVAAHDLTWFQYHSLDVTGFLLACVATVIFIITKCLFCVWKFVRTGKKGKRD
Protocol: as §3, §2, §4, §5

[11] = Drug binding to control insect cell membranes by RED; conditions: 0.2 mg/mL total protein in the membrane
[12] = molecular target: T7, BSA; set-up: purchased Sigma-Aldrich (St. Louis, MO, USA); conditions: 1% BSA; cited from earlier work
[13] = test system: UGT1A9 expressed in Sf9 insect cells; conditions: darexaban glucuronidation; cited from earlier work
[14] = molecular target: T9, UGT2A1 (Homo sapiens, UniProt P0DTE4); assay: UGT2A1-catalyzed glucuronidation, enzyme kinetics; conditions: 0.1% BSA vs no BSA
T9 sequence (P0DTE4 21-527): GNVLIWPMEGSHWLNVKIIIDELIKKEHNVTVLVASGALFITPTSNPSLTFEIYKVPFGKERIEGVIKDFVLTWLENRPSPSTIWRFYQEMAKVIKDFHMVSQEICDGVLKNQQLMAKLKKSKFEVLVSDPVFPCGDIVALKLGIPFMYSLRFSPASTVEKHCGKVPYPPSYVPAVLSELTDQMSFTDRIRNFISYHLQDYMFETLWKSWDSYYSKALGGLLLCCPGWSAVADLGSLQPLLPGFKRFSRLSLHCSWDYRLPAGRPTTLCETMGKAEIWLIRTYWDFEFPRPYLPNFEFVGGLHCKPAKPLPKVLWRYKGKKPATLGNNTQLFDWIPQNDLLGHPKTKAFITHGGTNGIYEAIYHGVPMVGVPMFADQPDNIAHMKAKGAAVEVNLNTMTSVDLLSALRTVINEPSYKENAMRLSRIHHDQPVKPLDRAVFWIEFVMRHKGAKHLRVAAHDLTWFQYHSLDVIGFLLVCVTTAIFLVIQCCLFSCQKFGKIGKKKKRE
Protocol: as §1, §2, §6, §5

T7 sequence (P02769 25-607): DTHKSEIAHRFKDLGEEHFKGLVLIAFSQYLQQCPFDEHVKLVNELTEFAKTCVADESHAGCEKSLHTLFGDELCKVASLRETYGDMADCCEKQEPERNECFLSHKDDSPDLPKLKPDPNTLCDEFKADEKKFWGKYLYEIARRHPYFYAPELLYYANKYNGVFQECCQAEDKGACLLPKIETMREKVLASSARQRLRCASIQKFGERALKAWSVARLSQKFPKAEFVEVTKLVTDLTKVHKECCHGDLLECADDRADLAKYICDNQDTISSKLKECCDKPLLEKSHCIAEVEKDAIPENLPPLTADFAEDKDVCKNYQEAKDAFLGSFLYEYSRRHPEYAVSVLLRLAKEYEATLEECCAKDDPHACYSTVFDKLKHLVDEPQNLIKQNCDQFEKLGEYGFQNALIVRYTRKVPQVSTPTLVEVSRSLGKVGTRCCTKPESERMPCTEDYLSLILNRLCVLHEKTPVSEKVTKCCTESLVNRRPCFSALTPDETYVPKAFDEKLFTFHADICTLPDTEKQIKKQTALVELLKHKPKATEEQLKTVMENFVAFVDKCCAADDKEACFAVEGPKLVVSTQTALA

Molecule: 17β-estradiol
Km [1]: 7.84 µM

Molecule: C[C@]12CC[C@@H]3c4ccc(O)cc4CC[C@H]3[C@@H]1CC[C@H]2O [17α-Estradiol, 17α-estradiol]
V max ± S.E. [5]: 0.069±0.003(0.062–0.076) nmol•min^–1•mg^–1
K m or S 50 ± S.E. ([5]; 0.1% BSA, substrate concentration corrected for binding to BSA, 17α-estradiol: 3-glucuronide formation): 5.58±0.56 ^***(4.24–6.74) µM
fraction unbound at 8 h [8]: 0.49 ± 0.01
K m or S 50 ± S.E. [10]: 1.60±0.23 ^***(1.12–2.08) µM
V max ± S.E. [10]: 0.053±0.002(0.048–0.058) nmol•min^–1•mg^–1
binding to control insect cell membrane [11]: negligible

Molecule: bovine serum albumin [BSA]
V max increase on inclusion of 0.1% BSA ([2]; 0.1% BSA vs no BSA): up to 7 fold
effect of 2% BSA instead of 0.1% BSA [13]: very little effect
decrease of K m values on inclusion of 0.1% BSA [14]: up to 20 fold

Continued, in another order:

V max ± S.E. [2]: 0.25±0.01(0.22–0.28) nmol•min^–1•mg^–1
V max ± S.E. [3]: 8.0±0.3(7.3–8.7) nmol•min^–1•mg^–1
V max ± S.E. [4]: 0.28±0.03(0.22–0.34) nmol•min^–1•mg^–1
V max ± S.E. ([5]; No BSA, measured rates, not expression normalized, 17α-estradiol: 3-glucuronide formation): 0.83±0.01(0.82–0.85) nmol•min^–1•mg^–1
V max ± S.E. [6]: 0.11±0.004(0.11–0.12) nmol•min^–1•mg^–1
V max ± S.E. [7]: 5.2±0.3(4.5–6.0) nmol•min^–1•mg^–1
Molecule: Cc1cc(=O)oc2cc(O)ccc12 [4-MU, 4-Methylumbelliferone]

fraction unbound at 6 h [8]: 0.84 to 0.97
nonspecific binding to the RED device [9]: ≤ 10%
V max ± S.E. [7]: 7.0±0.8(5.3–8.7) nmol•min^–1•mg^–1
Molecule: Oc1ccc2cc[nH]c2c1 [6-Hydroxyindole, 6-hydroxyindole]

V max ± S.E. [2]: 0.15±0.01(0.14–0.16) nmol•min^–1•mg^–1
V max ± S.E. [3]: 0.91±0.01(0.89–0.94) nmol•min^–1•mg^–1
Molecule: CCN(CC)C(=O)/C(C#N)=C/c1cc(O)c(O)c([N+](=O)[O-])c1 [Entacapone]
f u (unbound fraction) [12]: < 0.1
